Test results from paper PMC6061857 (2018).

Assays:
[1] = system: 35-GT (DNA, aptamer) GGGAGACAAGGAAAATCCTTCAATGAAGTGGGTCT; assay: ITC; settings: 10 mM Tris, pH 7.4, 23 °C
[2] = system: 38-GT (DNA, aptamer) GGGAGACAAGGAAAATCCTTCAATGAAGTGGGTCTCCC; assay: ITC; settings: 10 mM Tris, pH 7.4, 23 °C
[3] = system: ATP-33 (DNA, aptamer) CGCACCTGGGGGAGTATTGCGGAGGAAGGTGCG; assay: ITC, two-site sequential binding; settings: 10 mM Mg2+; 10 mM Tris, pH 7.4, 23 °C; site 1 of 2 (KD2 12.3 ± 0.6 μM)
[4] = system: ATP-30 (DNA, aptamer) CGCACCTGGGGGAGTATTGCGGAGGAAGGT; assay: ITC, two-site sequential binding; settings: 10 mM Mg2+; 10 mM Tris, pH 7.4, 23 °C; site 1 of 2 (KD2 10.1 ± 0.3 μM)

SMILES | KD [1] | KD [2] | KD1 [3] | KD1 [4]
COC(=O)[C@H]1[C@@H](OC(=O)c2ccccc2)C[C@@H]2CC[C@H]1N2C | 12 ± 1.0 µM | 1.6 ± 0.2 µM | – | –
Nc1ncnc2c1ncn2[C@@H]1O[C@H](COP(=O)(O)OP(=O)(O)OP(=O)(O)O)[C@@H](O)[C@H]1O | – | – | 0.6 ± 0.1 µM | 0.8 ± 0.1 µM
